Results published in the supplement of paper PMC10307832.

What was measured:
Assay in all cases: relative viability (nuclei count vs DMSO), 5 days (fraction); higher = more cells survive
[1] = compound: Cc1ccc2nc(NCCN)c3ncc(C)n3c2c1 + O=C(c1cc(Cc2n[nH]c(=O)c3ccccc23)ccc1F)N1CCN(C(=O)C2CC2)CC1 [Olaparib] (partner 8 µM)
Summary of the method: (§1)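 Lung cancer cell lines, seeded in 1536-well plates, were treated the following day by pin tool with a single drug or with five library-drug doses (not always all listed) in √10 steps on top of a fixed anchor-drug dose. Cells were fixed and nuclei stained in one step after 5 days, and nuclei were counted. Relative viability is the nuclei count for treated wells divided by that for vehicle wells, reported as medians of duplicate plates.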

[2] = compound: Cc1ccc2nc(NCCN)c3ncc(C)n3c2c1 + CS(=O)(=O)CCNCc1ccc(-c2ccc3ncnc(Nc4ccc(OCc5cccc(F)c5)c(Cl)c4)c3c2)o1 [Lapatinib] (partner 2 µM)
Summary of the method: as §1

[3] = compound: Cc1ccc2nc(NCCN)c3ncc(C)n3c2c1 + Cc1cc(Nc2cc(N3CCN(C)CC3)nc(Sc3ccc(NC(=O)C4CC4)cc3)n2)n[nH]1 [Tozasertib] (partner 0.1 µM)
Summary of the method: as §1

[4] = compound: Cc1ccc2nc(NCCN)c3ncc(C)n3c2c1 + CC(C)C[C@H](NC(=O)[C@H](Cc1ccccc1)NC(=O)c1cnccn1)B(O)O [Bortezomib] (partner 0.002 µM)
Summary of the method: as §1

Cell Line	relative viability ([1]; first compound 0.04 µM)	relative viability ([1]; first compound 0.1265 µM)	relative viability ([1]; first compound 0.4 µM)	relative viability ([1]; first compound 1.265 µM)	relative viability ([1]; first compound 4 µM)	relative viability ([2]; first compound 0.04 µM)	relative viability ([2]; first compound 0.1265 µM)	relative viability ([2]; first compound 0.4 µM)	relative viability ([2]; first compound 1.265 µM)	relative viability ([2]; first compound 4 µM)	relative viability ([3]; first compound 0.04 µM)	relative viability ([3]; first compound 0.1265 µM)	relative viability ([3]; first compound 0.4 µM)	relative viability ([3]; first compound 1.265 µM)	relative viability ([3]; first compound 4 µM)	relative viability ([4]; first compound 0.04 µM)	relative viability ([4]; first compound 0.1265 µM)	relative viability ([4]; first compound 0.4 µM)	relative viability ([4]; first compound 1.265 µM)	relative viability ([4]; first compound 4 µM)
ABC-1	0.781	0.785	0.639	0.691	1.04	1.18	1.16	1.12	0.783	1.03	0.171	0.15	0.171	0.187	0.22	0.402	0.223	0.337	0.282	0.263
NCI-H2347	0.601	0.566	0.485	0.525	0.501	0.99	0.99	0.908	0.987	0.87	0.801	0.58	0.509	0.519	0.437	1.09	0.919	0.932	1.14	1.07
NCI-H1993	1.12	0.962	0.86	0.624	1.06	0.844	0.887	0.695	0.74	0.629	0.602	0.593	0.543	0.566	0.581	1.21	1.07	0.921	1.11	0.875
NCI-H322M	0.698	0.816	0.881	0.796	0.638	0.535	0.593	0.586	0.59	0.603	0.553	0.452	0.528	0.547	0.462	1.29	1.1	1.24	1.18	1.27
NCI-H838	0.791	0.717	0.709	0.759	0.696	1.08	1.01	0.919	0.974	0.837	0.259	0.287	0.278	0.304	0.26	0.878	0.9	0.615	0.631	0.739
HARA	0.73	0.782	0.791	0.759	0.365	0.748	0.863	0.553	0.691	0.821	0.77	0.156	0.126	0.107	0.11	1.14	1.11	1.13	1.06	1.1
NCI-H2087	0.671	0.522	0.609	0.691	0.589	1.25	1.14	1.16	1.08	1.07	0.282	0.222	0.288	0.204	0.179	0.756	0.955	0.66	0.824	0.864
NCI-H1437	0.641	0.613	0.616	0.643	0.553	0.817	0.794	0.777	0.819	0.733	0.412	0.399	0.39	0.364	0.368	0.628	0.467	0.474	0.539	0.557
NCI-H650	0.374	0.364	0.39	0.393	0.399	0.927	0.123	0.645	0.969	0.761	0.725	0.727	0.752	0.615	0.746	0.863	0.673	0.73	0.859	0.621
COR-L23	0.348	0.351	0.397	0.321	0.328	1.27	0.874	0.924	0.837	0.853	0.202	0.243	0.218	0.135	0.173	1.07	0.913	0.928	0.989	0.91
COR-L 105	0.656	0.883	0.665	0.533	0.642	0.451	0.351	0.352	0.399	0.339	0.374	0.355	0.294	0.353	0.302	0.89	0.867	0.723	0.853	0.737
201T	0.945	0.839	0.804	0.829	0.823	1.07	1.03	0.989	1.17	0.98	0.985	0.976	0.908	0.971	0.913	1.11	1.2	1.09	1.11	1.11
HCC-44	0.999	0.96	0.955	1	0.977	0.961	0.993	1.01	0.99	1.01	1.06	0.896	1.04	0.753	0.645	0.93	0.897	0.806	0.882	0.922
NCI-H596	0.77	0.857	0.771	0.637	0.715	1.12	1.11	1.31	0.962	1.05	1.16	1.01	0.922	0.883	0.863	1.01	0.937	0.978	0.976	0.971
H3255	0.561	0.482	0.516	0.59	0.47	0.275	0.268	0.398	0.252	0.283	0.703	0.55	0.629	0.477	0.455	0.976	0.745	0.695	0.943	0.691
NCI-H647	0.602	0.492	0.517	0.642	0.268	1.08	1.02	0.948	1.13	0.707	0.246	0.306	0.356	0.281	0.128	0.943	0.783	0.999	0.864	0.707
